Patent US12071443B2, “Prolyl hydroxylase domain-containing protein (PHD) inhibitors and uses thereof” (Insilico Medicine IP Limited, priority 2021, dated 2024)

Tests used:
[1] = target: PHD2 (Homo sapiens, UniProt Q9GZT9); assay: PHD2 enzymatic assay (AlphaScreen); type: biochemical; conditions: PHD2 enzyme, AlphaScreen, IC50 from % inhibition; read-out: PHD2
[2] = test system: Caco2-HIF1α-HiBiT-clone-1 cells; assay: Caco-2 HIF1α-HiBiT assay; type: cell-based; conditions: Homo sapiens, Caco-2; Caco2-HIF1α-HiBiT-clone-1 cells, 6 h incubation, luminescence; read-out: Caco2-HIF1α-HiBit assay - EC50

Sequence of PHD2 (Q9GZT9 whole entry): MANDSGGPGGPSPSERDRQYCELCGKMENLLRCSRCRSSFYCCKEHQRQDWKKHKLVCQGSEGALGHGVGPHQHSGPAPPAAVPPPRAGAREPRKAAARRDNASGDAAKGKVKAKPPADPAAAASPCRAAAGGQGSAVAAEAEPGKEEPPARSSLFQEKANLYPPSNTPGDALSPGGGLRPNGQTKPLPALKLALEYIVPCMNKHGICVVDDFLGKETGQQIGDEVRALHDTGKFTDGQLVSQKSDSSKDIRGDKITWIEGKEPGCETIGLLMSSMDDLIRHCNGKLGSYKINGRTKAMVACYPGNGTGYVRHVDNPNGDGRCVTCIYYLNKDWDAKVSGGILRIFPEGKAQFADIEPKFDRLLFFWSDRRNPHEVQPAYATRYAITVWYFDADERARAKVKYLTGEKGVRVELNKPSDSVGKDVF

Compound | IC50 [1] [µM] | EC50 [2] [µM]
N#Cc1ccc(CNC(=O)c2ncc3nc(N4CCN(C5CC5)CC4)ccc3c2O)c(Cl)c1 [Example 4] | 0.005 to 0.02 | 10 to 100
N#Cc1ccc(CNC(=O)c2ncc3nc(N4CCNCC4)ccc3c2O)c(Cl)c1 [Example 5, N-(2-chloro-4-cyanobenzyl)-5-hydroxy-2-(piperazin-1-yl)-1,7-naphthyridine-6-carboxamide] | 0.005 to 0.02 | 7.5 to 10
N#Cc1ccc(CNC(=O)c2ncc3nc(N4CC[C@@H](O)C4)ccc3c2O)c(Cl)c1 [Example 6, (R)—N-(2-chloro-4-cyanobenzyl)-5-hydroxy-2-(3-hydroxypyrrolidin-1-yl)-1,7-naphthyridine-6-carboxamide] | 0.005 to 0.02 | 2.5 to 5
N#Cc1ccc(COC(=O)c2ncc3nc(N4CC[C@@H](O)C4)ccc3c2O)cn1 [Example 15, (6-cyanopyridin-3-yl)methyl (R)-5-hydroxy-2-(3-hydroxypyrrolidin-1-yl)-1,7-naphthyridine-6-carboxylate] | 1 to 100 | 10 to 100
CP1(=O)CCN(c2ccc3c(O)c(C(=O)NCc4ccc(C#N)cc4Cl)ncc3n2)CC1 [Example 16] | < 0.005 | 10 to 100
C[C@H](NC(=O)c1ncc2nc(N3CCOCC3)ccc2c1O)c1ccc(C#N)cc1 [Example 17] | 1 to 100 | 10 to 100
C[C@@H](NC(=O)c1ncc2nc(N3CCOCC3)ccc2c1O)c1ccc(C#N)cc1 [Example 18] | 0.005 to 0.02 | 5 to 7.5
CN1CCN(c2ccc3c(O)c(C(=O)NCc4ccc(C#N)cc4Cl)ncc3n2)CC1=O [Example 19] | 0.005 to 0.02 | 10 to 100
Cc1cc(C#N)ncc1CNC(=O)c1ncc2nc(N3CCOCC3)ccc2c1O [Example 20] | < 0.005 | 2.5 to 5
CC(NC(=O)c1ncc2nc(N3CCOCC3)ccc2c1O)c1ccc(C#N)nc1 (stereo not drawn) [Example 21] | 0.02 to 0.1 | 10 to 100
N#Cc1ncc(CNC(=O)c2ncc3nc(N4CCOCC4)ccc3c2O)cn1 [Example 23] | < 0.005 | 5 to 7.5
CO[C@@H]1CCN(c2ccc3c(O)c(C(=O)NCc4ccc(C#N)nc4)ncc3n2)C1 [Example 27] | < 0.005 | < 2.5
CC(C)(C)OC(=O)N1CCN(c2ccc3c(O)c(C(=O)NCc4ccc(C#N)nc4)ncc3n2)CC1 [Example 29, tert-butyl 4-(6-(((6-cyanopyridin-3-yl)methyl)carbamoyl)-5-hydroxy-1,7-naphthyridin-2-yl)piperazine-1-carboxylate] | < 0.005 | < 2.5
N#Cc1ccc(CNC(=O)c2ncc3nc(N4CCOCC4)ncc3c2O)cn1 [Example 31] | – | 10 to 100
COc1cc(C#N)ncc1CNC(=O)c1ncc2nc(N3CCOCC3)ccc2c1O [Example 32] | < 0.005 | 10 to 100
N#Cc1cnc(CNC(=O)c2ncc3nc(N4CCOCC4)ccc3c2O)cn1 [Example 33] | – | 5 to 7.5
N#Cc1ccc(CNC(=O)c2ncc3nc(N4CC[C@H](C(=O)N5CCNCC5)C4)ccc3c2O)cn1 [Example 41, (S)—N-((6-cyanopyridin-3-yl)methyl)-5-hydroxy-2-(3-(piperazine-1-carbonyl)pyrrolidin-1-yl)-1,7-naphthyridine-6-carboxamide] | < 0.005 | 10 to 100
N#Cc1ccc(CNC(=O)c2ncc3nc(N4CC[C@@H](CO)C4)ccc3c2O)cn1 [Example 42] | < 0.005 | 2.5 to 5
CN1CCN(c2ccc3c(O)c(C(=O)NCc4ccc(C#N)nc4)ncc3n2)C[C@@H]1CO [Example 45, (R)—N-((6-cyanopyridin-3-yl)methyl)-5-hydroxy-2-(3-(hydroxymethyl)-4-methylpiperazin-1-yl)-1,7-naphthyridine-6-carboxamide] | < 0.005 | 10 to 100
CC(=O)N1CCN(c2ccc3c(O)c(C(=O)NCc4ccc(C#N)nc4)ncc3n2)C[C@@H]1CO [Example 46, (R)-2-(4-acetyl-3-(hydroxymethyl)piperazin-1-yl)-N-((6-cyanopyridin-3-yl)methyl)-5-hydroxy-1,7-naphthyridine-6-carboxamide] | < 0.005 | 10 to 100
CC(C)(C)OC(=O)N1CCN(c2ccc3c(O)c(C(=O)NCc4ccc(C#N)nc4)ncc3n2)C[C@@H]1CO [Example 47] | < 0.005 | < 2.5
COC(=O)[C@H]1CN(c2ccc3c(O)c(C(=O)NCc4ccc(C#N)nc4)ncc3n2)CCN1 [Example 50, methyl (R)-4-(6-(((6-cyanopyridin-3-yl)methyl)carbamoyl)-5-hydroxy-1,7-naphthyridin-2-yl)piperazine-2-carboxylate] | < 0.005 | 10 to 100
N#Cc1ccc(CNC(=O)c2ncc3nc(N4CCN[C@@H](C(=O)O)C4)ccc3c2O)cn1 [Example 51, (R)-4-(6-(((6-cyanopyridin-3-yl)methyl)carbamoyl)-5-hydroxy-1,7-naphthyridin-2-yl)piperazine-2-carboxylic acid] | < 0.005 | 10 to 100
CN1CCN(c2ccc3c(O)c(C(=O)NCc4ccc(C#N)cc4Cl)ncc3n2)C[C@@H]1CO [Example 59, (R)—N-(2-chloro-4-cyanobenzyl)-5-hydroxy-2-(3-(hydroxymethyl)-4-methylpiperazin-1-yl)-1,7-naphthyridine-6-carboxamide] | < 0.005 | 2.5 to 5

Compound | IC50 [1] [µM] | EC50 [2] [µM]
N#Cc1ccc(CNC(=O)c2ncc3nc(N4CCN[C@@H](CO)C4)ccc3c2O)c(Cl)c1 [Example 60, (R)—N-(2-chloro-4-cyanobenzyl)-5-hydroxy-2-(3-(hydroxymethyl)piperazin-1-yl)-1,7-naphthyridine-6-carboxamide] | 0.005 to 0.02 | 10 to 100
CC(=O)N1CCN(c2ccc3c(O)c(C(=O)NCc4ccc(C#N)cc4Cl)ncc3n2)C[C@@H]1CO [Example 63, (R)-2-(4-acetyl-3-(hydroxymethyl)piperazin-1-yl)-N-(2-chloro-4-cyanobenzyl)-5-hydroxy-1,7-naphthyridine-6-carboxamide] | 0.005 to 0.02 | 7.5 to 10
N#Cc1ccc([C@@H](CO)NC(=O)c2ncc3nc(N4CCOCC4)ccc3c2O)cn1 [Example 64] | 0.1 to 1 | 10 to 100
CN1CCN(c2ccc3c(O)c(C(=O)NCc4ccc(C#N)nc4)ncc3n2)CC1=O [Example 66] | < 0.005 | 10 to 100
N#Cc1ccc(CNC(=O)c2ncc3nc(N4CCN(C5CC5)[C@@H](CO)C4)ccc3c2O)c(Cl)c1 [Example 70] | 0.005 to 0.02 | 2.5 to 5
N#Cc1ccc(CNC(=O)c2ncc3nc(N4CCN(C5CC5)[C@H](CO)C4)ccc3c2O)c(Cl)c1 [Example 71] | 0.005 to 0.02 | 2.5 to 5
N#Cc1ccc(CNC(=O)c2ncc3nc(N4CCN(C(=O)CCO)CC4)ccc3c2O)cn1 [Example 72, N-((6-cyanopyridin-3-yl)methyl)-5-hydroxy-2-(4-(3-hydroxypropanoyl)piperazin-1-yl)-1,7-naphthyridine-6-carboxamide] | < 0.005 | 5 to 7.5
COCCC(=O)N1CCN(c2ccc3c(O)c(C(=O)NCc4ccc(C#N)nc4)ncc3n2)CC1 [Example 73, N-((6-cyanopyridin-3-yl)methyl)-5-hydroxy-2-(4-(3-methoxypropanoyl)piperazin-1-yl)-1,7-naphthyridine-6-carboxamide] | < 0.005 | 5 to 7.5
N#Cc1ccc(CNC(=O)c2ncc3nc(N4CCN(CCO)CC4)ccc3c2O)cn1 [Example 74] | < 0.005 | 2.5 to 5
COCCN1CCN(c2ccc3c(O)c(C(=O)NCc4ccc(C#N)nc4)ncc3n2)CC1 [Example 75] | < 0.005 | 5 to 7.5
COC(=O)C1CN(c2ccc3c(O)c(C(=O)NCc4ccc(C#N)nc4)ncc3n2)C1 [Example 84] | < 0.005 | 5 to 7.5
N#Cc1ccc(CNC(=O)c2ncc3nc(N4CCOC(=O)C4)ccc3c2O)cn1 [Example 85, N-((6-cyanopyridin-3-yl)methyl)-5-hydroxy-2-(2-oxomorpholino)-1,7-naphthyridine-6-carboxamide] | < 0.005 | 10 to 100
COCCOC(=O)C1CCN(c2ccc3c(O)c(C(=O)NCc4ccc(C#N)nc4)ncc3n2)CC1 [Example 86] | < 0.005 | 10 to 100
COC(=O)[C@H]1CN(c2ccc3c(O)c(C(=O)NCc4ccc(C#N)nc4)ncc3n2)CCN1C1CC1 [Example 89] | < 0.005 | 2.5 to 5
COC(=O)[C@H]1CN(c2ccc3c(O)c(C(=O)NCc4ccc(C#N)nc4)ncc3n2)CCO1 [Example 92] | < 0.005 | 5 to 7.5
N#Cc1ccc(CNC(=O)c2ncc3nc(N4CCNCC4=O)ccc3c2O)cn1 [Example 102, N-((6-cyanopyridin-3-yl)methyl)-5-hydroxy-2-(2-oxopiperazin-1-yl)-1,7-naphthyridine-6-carboxamide] | 0.1 to 1 | –
CC(C)(C)OC(=O)N1CCN(c2ccc3c(O)c(C(=O)NCc4cnc(C#N)cn4)ncc3n2)CC1 [Example 134, tert-butyl 4-(6-(((5-cyanopyrazin-2-yl)methyl)carbamoyl)-5-hydroxy-1,7-naphthyridin-2-yl)piperazine-1-carboxylate] | – | 10 to 100
Cc1cc(C#N)ncc1CNC(=O)c1ncc2nc(N3CCN(C(=O)OC(C)(C)C)CC3)ccc2c1O [Example 135] | – | < 2.5
CC[C@H]1CN(C(=O)OC(C)(C)C)CCN1c1ccc2c(O)c(C(=O)NCc3ccc(C#N)nc3)ncc2n1 [Example 151] | – | 2.5 to 5
CCOC(=O)CC1CN(c2ccc3c(O)c(C(=O)NCc4ccc(C#N)nc4)ncc3n2)C1 [Example 153] | – | 2.5 to 5
CC(C)OC(=O)CC1CN(c2ccc3c(O)c(C(=O)NCc4ccc(C#N)nc4)ncc3n2)C1 [Example 154] | – | < 2.5
CC1(C)CCN(c2ccc3c(O)c(C(=O)NCc4ccc(C#N)nc4)ncc3n2)CC1 [Example 155] | – | 7.5 to 10
COc1c(C(=O)NCc2ccc(C#N)nc2)ncc2nc(N3CCOCC3)ccc12 [Example 163, N-((6-cyanopyridin-3-yl)methyl)-5-methoxy-2-morpholino-1,7-naphthyridine-6-carboxamide] | 0.1 to 1 | –
